Assay results published in patent US10441562B2, “Aromatic farnesyl compound and application thereof” (INSTITUTE OF MICROBIOLOGY, CHINESE ACADEMY OF SCIENCES, priority 2015, dated 2019).
Marks after values point to notes of the source that are not given here.

Experiments:
[1] = system: hyperglycemia mice induced by alloxan; test: blood sugar of hyperglycemia mice induced by alloxan; assay type: in vivo, Kunming species mice; details: for effect on blood sugar level of hyperglycemic mice (in words): 50 mg/kg
Description: Blood glucose determination kit (batch number 20140403) is purchased from Nanjing Jiancheng Bioengineering Institute. Methods: after being acclimatized for 1 week, 10 randomly selected Kunming species male mice of SPF level of 20±2 g are used as control group, while the other 50 mice are given alloxan to make model by intraperitoneal injection according to body weight 220 mg/kg.

[2] = system: rats fed with high fat diet; test: blood lipid of rats fed with high fat diet; assay type: in vivo, SD rats; details: 50 mg/kg intragastric, 10 days, serum
Excerpt: Serum total cholesterol kit (batch number 20131112), low density lipoprotein LDL-C kit (batch number 20140114), high density lipoprotein HDL-C kit (batch number 20140413), triglyceride TG kit (batch number 20131226), superoxide dismutase SOD kit (batch number 20140213) and glutamic-pyruvic transaminase ALT kit (batch number 20131006) are purchased from Nanjing Jiancheng Bioengineering Institute.
Methods: after being acclimatized for 1 week, the 200±20 g healthy male SD rats are randomly divided into 4 groups of 8 animals in each. The control group is fed with normal diet, while the other groups are fed with high-fat diet, which is normal diet with 1% cholesterol, 0.2% pig bile sal, 10% lard and 10% egg yolk powder. After being fed for 3 weeks, 10 mg/ml extract solution of 1 ml (which corresponds to 50 mg/kg) is given to different groups of rats by intragastric administration for 10 days successively, and the control group and model group are given with equal amounts of saline. After the last administration, blood is taken to be centrifuged at 3000 rpm in 4[…], and then detect serum total cholesterol, low density lipoprotein and triglyceride TG

normal mice = test: blood sugar of normal mice; assay type: in vivo, Kunming species mice; details: 50 mg/kg intragastric, 10 days, fasted 10 hours
Description: Blood glucose determination kit (batch number 20140403) is purchased from Nanjing Jiancheng Bioengineering Institute.
Methods: after being acclimatized for 1 week, the 20±2 g Kunming species mice are randomly divided into 3 groups of 12 animals in each. 10 mg/ml extract solution of 0.1 ml (which corresponds to 50 mg/kg) is given to different groups of mice by intragastric administration for 10 days successively, and the control group is given with equal amounts of saline. After the last administration, the mice are fasted for 10 hours and blood is collected from orbit, then detect the blood sugar by blood glucose determination kit.

[3] = system: Wister rats fed with choline deficient diet; test: hepatic tissue section of non-alcohol fatty liver rats (HE); assay type: in vivo; details: FIG. 2, 10 and 20 mg/kg
Description: Methods: male SPF level Wister rats are randomly divided into groups: (1) normal group (2) model control group (3) which is administered by compound S13 with the dose of 10 mg/kg (4) which is administered by compound S13 with the dose of 20 mg/kg (5) which is administered by compound S28 with the dose of 10 mg/kg […] which is administered by compound S28 with the dose of 20 mg/kg. Each group has 10 mice. The mice of normal group are fed with standard diet, the mice of other groups are fed with choline deficient diet (high-fat diet). Food intake and body weight are detected. Feeding with choline deficient diet are considered as a frequently-used hepatic adipose infiltration modeling method of rodent, which can induce the denaturation of hepatocyte, hepatitis and liver injury, at the same time the increase of blood lipid level can induce the insulin resistance.
After being fed with high-fat diet for 8 weeks, the mice of treated group are given drugs for 4 weeks successively. Model group and normal group are given with equal amounts of 0.5% CMC-Na. After administration of medicine for 4 weeks, the rats are executed under anesthesia, and then hepatic tissue and blood are collected.
4) Hepatic tissue section: after the last administration, the rats are executed under anesthesia. Collect the liver on the ice, then quickly fix the liver into formalin and prepare the tissue sections.

Compound | effect on blood sugar level of hyperglycemic mice (in words) ([1]; 10 days) | ALT [2] | HDL-C [2] [mmol/L] | LDL-C [2] | SOD [2] | TC [2] | TG [2] | blood sugar (normal mice) [mmol/L] | fat vacuole in hepatocyte (liver tissue section, HE) [3] | blood sugar after administration ([1]; 50 mg/kg intragastric, 10 days, fasted 10 hours) | blood sugar before administration ([1]; before administration) [mmol/L]
CC(C)=CCC/C(C)=C/CCC1=C[C@@H](c2cc(O)ccc2O)OC1=O [S28, (S,E)-5-(2,5-dihydroxyphenyl)-3-(4,8-dimethylnona-3,7-dien-1-yl)furan-2(5H)-one] | significantly decrease the blood sugar level of hyperglycemic mice | 72.1* U/L | 0.97 | 0.38** mmol/L | 2.10* U/L | 1.98** mmol/L | 0.45* mmol/L | 4.02 | almost disappear |  | 
CC(C)=CCC/C(C)=C/CCC1=C[C@H](c2cc(O)ccc2O)OC1=O [S13, (R,E)-5-(2,5-dihydroxyphenyl)-3-(4,8-dimethylnona-3,7-dien-1-yl)furan-2(5H)-one] | significantly decrease the blood sugar level of hyperglycemic mice | 61.3* U/L | 0.99 | 0.36** mmol/L | 2.04 U/L | 2.13* mmol/L | 0.44* mmol/L | 4.21 | almost disappear | 5.11** mmol/L | 14.50
